For data set [1] the following is noted: DTA.
The nature of data set [2]: Molar enthalpy of transition or fusion. The settings on record: DSC.

Numbers after ± are expanded uncertainties.

13 molecules from the NIST ThermoML archive (doi:10.1016/j.tca.2006.04.011) can be followed below.

Turning to `Clc1c(Cl)c(Cl)c2ccccc2c1Cl` [naphthalene, 1,2,3,4-tetrachloro-], the Triple point temperature was found to be 470.75 ± 3.2 K in data set [1] (Crystal 1), 454.25 ± 3.2 K in data set [1] (Crystal 2) and 440.45 ± 3.2 K in data set [1] (Crystal 3). Moreover, the results for the “Molar enthalpy of transition or fusion” value in data set [2] (Crystal 1), in data set [2] (Crystal 2) and in data set [2] (Crystal 3) were 2.76 ± 0.184 kcal/mol, 0.318 ± 0.172 kcal/mol and 2.52 ± 0.182 kcal/mol, respectively.
As to `Clc1cc2cc(Cl)c(Cl)c(Cl)c2cc1Cl` [naphthalene, 1,2,3,6,7-pentachloro-], the Triple point temperature in data set [1] (Crystal 1) worked out at 416.55 ± 3.2 K. The “Molar enthalpy of transition or fusion” value in data set [2] (Crystal 1) worked out at 5.48 ± 0.206 kcal/mol.
For `Clc1cc(Cl)c2c(Cl)c(Cl)cc(Cl)c2c1` [1,2,4,6,8-pentachloronaphthalene], in that order: 428.95 ± 3.2 K and 4.72 ± 0.198 kcal/mol.
On to `Clc1cc(Cl)c2cc(Cl)cc(Cl)c2c1` [1,3,5,7-tetrachloronaphthalene], for which the Triple point temperature in data set [1] (Crystal 1) is recorded as 452.95 ± 3.2 K. In data set [2] (Crystal 1), the “Molar enthalpy of transition or fusion” value came out at 6.49 ± 0.215 kcal/mol.
Turning to `Clc1cc2ccc(Cl)c(Cl)c2c(Cl)c1Cl` [naphthalene, 1,2,3,7,8-pentachloro-], the Triple point temperature in data set [1] (Crystal 1) turned out to be 381.55 ± 3.2 K. Besides, the “Molar enthalpy of transition or fusion” value in data set [2] (Crystal 1) stood at 4.19 ± 0.194 kcal/mol.
In the case of `Clc1cc(Cl)c2cc(Cl)c(Cl)c(Cl)c2c1` [1,2,3,5,7-pentachloronaphthalene], the Triple point temperature in data set [1] (Crystal 1) is given as 444.85 ± 3.2 K. The “Molar enthalpy of transition or fusion” value in data set [2] (Crystal 1) is 6.15 ± 0.213 kcal/mol.
For `Clc1cc(Cl)c2c(Cl)c(Cl)cc(Cl)c2c1Cl` [1,2,4,5,6,8-hexachloronaphthalene], in that order: 449.35 ± 3.2 K and 6.9 ± 0.22 kcal/mol.
In the case of `Clc1cc2c(Cl)ccc(Cl)c2c(Cl)c1Cl` [1,2,3,5,8-pentachloronaphthalene], the values for the Triple point temperature in data set [1] (Crystal 1), in data set [1] (Crystal 2) and in data set [1] (Crystal 3) were 453.25 ± 3.2 K, 443.35 ± 3.2 K and 387.75 ± 3.2 K, respectively. Also, the “Molar enthalpy of transition or fusion” value in data set [2] (Crystal 1) came out at 2.02 ± 0.179 kcal/mol; in data set [2] (Crystal 2), 0.22 ± 0.172 kcal/mol; in data set [2] (Crystal 3), 3.44 ± 0.189 kcal/mol.
In the case of `Clc1ccc2ccc(Cl)c(Cl)c2c1Cl` [naphthalene, 1,2,7,8-tetrachloro-], in data set [1] (Crystal 1), the Triple point temperature is 401.25 ± 3.2 K. Also, the “Molar enthalpy of transition or fusion” value in data set [2] (Crystal 1) turned out to be 3.49 ± 0.189 kcal/mol.
Consider `Clc1cc2c(Cl)cc(Cl)c(Cl)c2cc1Cl` [naphthalene, 1,2,4,6,7-pentachloro-], for which the Triple point temperature in data set [1] (Crystal 1) worked out at 404.25 ± 3.2 K. In addition, the “Molar enthalpy of transition or fusion” value in data set [2] (Crystal 1) was 5.4 ± 0.206 kcal/mol.
Take `Clc1cc(Cl)c2c(Cl)c(Cl)ccc2c1Cl` [1,2,4,5,6-pentachloronaphthalene]: the Triple point temperature is 412.65 ± 3.2 K in data set [1] (Crystal 1) and 404.15 ± 3.2 K in data set [1] (Crystal 2). The “Molar enthalpy of transition or fusion” value in data set [2] (Crystal 1) amounted to 2.01 ± 0.179 kcal/mol; in data set [2] (Crystal 2), 3.74 ± 0.191 kcal/mol.
Consider `Clc1cc2ccccc2c(Cl)c1Cl` [naphthalene, 1,2,3-trichloro-], for which, in data set [1] (Crystal 1), the Triple point temperature is given as 354.65 ± 3.2 K. In addition, the “Molar enthalpy of transition or fusion” value in data set [2] (Crystal 1) stood at 4.41 ± 0.196 kcal/mol.
`Clc1cc2c(Cl)c(Cl)c(Cl)c(Cl)c2c(Cl)c1Cl` [naphthalene, 1,2,3,4,5,6,7-heptachloro-]: the Triple point temperature in data set [1] (Crystal 1) is on record as 455.95 ± 3.2 K; in data set [1] (Crystal 2), 454.45 ± 3.2 K. Besides, the results for the “Molar enthalpy of transition or fusion” value in data set [2] (Crystal 1) and in data set [2] (Crystal 2) were 2.09 ± 0.179 kcal/mol and 2.04 ± 0.179 kcal/mol, respectively.
